Values joined by “and” are separate entries in the source; they are usually repeats but may differ in a detail not shown here. Identical values can stand only once. Like-named read-outs stand apart in the source and are kept apart here. Blank lines part the entries; values can stand above or below the molecule they belong to.
Tests used:
[1] = cited from earlier work
[2] = inhaled, humans; cited from earlier work
[3] = cited from earlier work; remark: listed apart in the source
[4] = inhaled, mouse; cited from earlier work
[5] = 30° C., 0.5 atm, cited from earlier work
[6] = brain, cited from earlier work
[7] = dissolved in rat blood, 293° K, data obtained over 12 hr; cited from earlier work
[8] = cited from earlier work; remark: listed apart in the source
[9] = Relaxivity of O2 toward 129Xe and T1 estimates derived from it; format: physicochemical; conditions: for T1: absence of other relaxers
Text: It is known that ^129Xe, which has a long longitudinal relaxation time in the gas phase, can be relaxed by magnetic dipole-dipole interaction and/or Fermi-Contact interaction with the unpaired electron spins of dioxygen. (Reference 18). The solubility of Xenon (and also of dioxygen) in water is low. Due to the low sensitivity of the ^129Xe signal, the time required for determining the relaxivity of O2 toward ^129Xe with a series of T1 determinations over a range of O2 concentrations in water would be prohibitively long.
The relaxivity of O2 toward ^129Xe has been measured in only one liquid, i.e., octanol, which models an amphipathic membrane lipid. (Reference 17). The observed relaxivity, 0.029 s^−1mM^−1, is about three times larger than that estimated from previous reports for gas-phase relaxation, i.e., (Reference 18), 0.0087 s^−1mM^−1, as might be expected for encounters in the condensed phase. The dioxygen relaxivity for ^129Xe is constant over the concentration range studied, and thus 1/T1 will be a linear function of O2 concentration over the entire physiological range (0-0.2 atm, 0-0.2 mM). This translates into a T1 value of 18 s in air-saturated lipid, and 80 s in anaerobic lipid, in the absence of other relaxers. This is the first reported value for the O2 relaxivity toward ^129Xe in a condensed phase. T2values over these O2 concentrations have been determined to range from 0.5 to 5.0 s. […] In fact, given the relative inefficiency of the known non-paramagnetic relaxation mechanisms, it is suspected that T1 in many tissues will not fall below seconds or even tens of seconds.
This estimate of T1≈38 s for ^129Xe dissolved in rat blood at 293° K is very encouraging. […] One can also estimate T1 values for other model systems. The T1 of ^129Xe in water has been measured at 300° K to be 130 s. […] While the actual values of T1 in each tissue must be, and remain to be, determined, it is expected that the minimum value will fall above 15 s, a duration sufficient to enable significant accumulation of polarized ^129Xe in major tissues. […]

[10] = myoglobin (aqueous Fe(III) metmyoglobin)

SMILES: O=O [O2, dioxygen]
relaxivity of O2 toward 129Xe ([1]; gas phase, estimated from previous reports): 0.0087 s⁻¹ mM⁻¹
relaxivity of O2 toward 129Xe ([1]; octanol, 300° K): 0.029 s⁻¹ mM⁻¹

SMILES: [Xe] [Xenon]
time to reach a steady state with the entire blood volume (one blood circuit) [2]: about 18 s
metabolism ([3]; by the body): not metabolized by the body
period of recovery from the exhaled breath ([3]; human subjects): ~20 min
time to reach a steady state with the entire blood volume (one blood circuit) [4]: about 1 s
solubility of Xenon in octanol ([5]; octanol): 48 mM
solubility of Xenon in water ([5]; water): 2.4 mM
steady-state concentration bound to proteins ([6]; 0.5-1.0 atm lung Xenon): 1 to 5 mM
steady-state concentration in the membrane bilayers ([6]; 0.5-1.0 atm lung Xenon): 5 to 10 mM
steady-state concentration in water ([6]; 0.5-1.0 atm lung Xenon): 2 to 4 mM
solubility in white matter versus gray matter [6]: approximately twice as soluble in white matter as in gray matter

T1 ([9]; air-saturated lipid): 18 s
T1 ([9]; anaerobic lipid): 80 s
estimated T1 ([9]; fully oxygenated membranes): > 15 s
SMILES: [129Xe] [^129Xe, Xenon-129]
T1 [7]: 38 s and ≈ 38 s
T1 ([8]; 10% Fe(III) metMb): 0.005 s
T1 ([8]; benzene, 9.4 T and 300° K, Diehl and Jokisaari): 155.0 ± 6.2 s
T1 ([8]; benzene, 300° K): 160 s and 160.5 s
T1 ([8]; benzene, Moschos and Reisse): 240 s
T2 ([8]; benzene): 0.88 s
T1 [8, 10]: 0.0052 s
T2 [8, 10]: 0.00057 s
T1 ([8]; octanol): 80 s and 78.5 s
T2 ([8]; octanol): 5.3 s
T2 ([8]; pure gas phase, 1 atm): ≦56 hrs
T1 ([8]; pure gas phase, practically): at least 3000 s
T1 ([8]; water): 130 s and 131.3 s
T2 ([8]; water): 5.3 s
T2 ([1]; octanol, over O2 concentrations 0-0.2 atm): 0.5 to 5.0 s
